Measurements taken from patent US11827629B2, “CDGSH iron sulfur domain 2 activators and use thereof” (National Health Research Institutes, priority 2021, dated 2023).

Tested on: Male C57BL/6 mice
Experiment: In vivo protection against doxorubicin-induced cardiotoxicity (ECG, echocardiography)
Details: 1 mg/kg i.p. twice a day for 2 days, doxorubicin 25 mg/kg i.p., ECG day 4, heart echo day 5
Procedure: Compound 28 was evaluated for protecting against doxorubicin-induced cardiotoxicity in mice.
Male C57BL/6 mice between 7 and 8 months old were treated with Compound 28 (at a dosage of 1 mg/kg) or a vehicle (1.5 wt % of DMF and 3 wt % of Cremophor® EL in PBS) via intraperitoneal injection (i.p.) twice a day for 2 days. At day 0, 1 hour after the treatment with Compound 28, doxorubicin (25 mg/kg, i.p.) or another vehicle (10% DMSO in normal saline) was injected into mice.
Electrocardiogram (ECG) and heart echo on day 4 and day 5 respectively were used as indications of cardiac function. […]
Functional test of heart using ECG was performed as described in Yeh et al., PLoS Biol. 2019, 17, e3000508. […] Continuous 5-minute ECGs were obtained using subcutaneous electrodes attached at the four limbs and recorded with PowerLab® data acquisition system (model ML866, ADInstruments, Colorado Springs, CO) and Animal Bio Amp® (model ML136, ADInstruments). ECG analysis was performed in an unbiased fashion where 1500 beats were analyzed using LabChart® 7 Pro version 7.3.1 (ADInstruments, Inc). […]
Transthoracic mouse echocardiography was used to provide noninvasive imaging of the heart on a VisualSonics® VeVo® 2100 imaging system (VisualSonics, Toronto, Ontario, Canada). […] Body temperature was maintained and monitored at 36° C. to 37° C. on a heated pad (TC-1000, CWE Inc. USA). ECGs were continuously monitored. […]

## O=C(CS(=O)(=O)c1nccs1)N1Cc2ccccc2C1 [Compound 28, 1-(1,3-dihydro-2H-isoindol-2-yl)-2-(1,3-thiazol-2-ylsulfonyl)ethanone]
  protection against doxorubicin-induced cardiotoxicity: protected against doxorubicin-induced cardiotoxicity
